Results taken from patent US11622975B2, “Compositions and methods for improved honey bee health” (priority 2019, dated 2023).

Legend:
honey bee colonies = assay: Overwintering field trial of honey bee colonies treated with HPBCD and acaricide; assay type: in vivo; conditions: for colony (hive) loss: fed October to December, surviving hives counted in March, 10 colonies per treatment, no treatment about 50%; for total frames containing bees: measured in March after overwintering, no treatment 50 frames
Experimental: This example illustrates the use of HPBCD in a field setting. Four treatments with 10 colonies per treatment were performed as follows: (i) No HPBCD and no acaricide (No Treatment control), (ii) acaricide alone (Amitraz), (iii) HPBCD, and (iv) a combination of Amitraz and HPBCD. Colonies were fed treatments using a top box feeder in a “Langstroth Hive” from October to December, then surviving hives were counted in March of the following year and numbers of Langstroth frames containing bees were measured. About 50% of the colonies that received no treatment were lost; while it is a high level of loss it was within the expected range for hives that received no extra management besides sugar syrup supplementation (which agrees with the national average for untreated colonies). The group receiving only Amitraz, the current industry standard for mite control, lost about 20% of the colonies. HPBCD on its own was able to reduce hive loss to about 30%. […] Not intending to be bound by theory, one possible explanation for this profound effect is that Amitraz was lethal to mites based on contact (LC50), while the possible sub lethal and chronic affects for the honey bee were dosage based (LD50) as evidenced by slower behavioral response time (see e.g., De Mattos, 2017). It is likely the bees ingest the HPBCD and the Amitraz was sequestered rendering its effects on the bee diminished, while the groups that received no HPBCD were still susceptible to the effects of the acaricide.

honey bees [1] = assay: Cage survival study of bees fed sublethal doses of pesticides with or without MBCD; assay type: in vivo, Apis mellifera
Experimental: (§1) This example illustrates the baseline effects of the inventive composition in the absence of an exogenous stressor. Samples of European honey bees, Apis mellifera, were collected from colonies maintained in the apiaries of the USDA-ARS Bee Research Laboratory in Beltsville, Md. Frames with emerging brood were removed from colonies and individually placed in a mesh-walled cage. The cages were transferred to an insect growth chamber at 34° C. and 70% humidity. After 24 hrs incubation, newly emerged honey bees were transferred to a honey bee rearing cup, with a top-feeder design, allowing for easy sampling of honey bees (see e.g., Evans et al., 2009). A 3 mL syringe filled with 50% sugar syrup mixture was inverted over the top of the rearing cup to provision the caged honey bees. The honey bees were also provisioned with 1.5 grams of honey bee pollen supplement in patty form (e.g., Bee-Pro®, available from Mann Lake Ltd, Hackensack, Minn.), supplemented 10% (w/w) with ground fresh pollen, and placed on cotton paper on the cup cage bottoms. Syringes and sucrose solution were changed every 3 days and cotton paper was changed once per week.
In this example, whether MBCD mitigates the toxicity of certain pesticides associated with honey bee death was investigated. Not intending to be theory-bound, it was hypothesized that the binding of hydrophobic pesticide molecules to CDs would translate into health benefits to honey bees that were exposed to such pesticides. Samples of honey bees were collected as in example 1. A cage study (n=30 bees per cage & 2 replicate cages per treatment) was performed using 50% sucrose solution that had been spiked with sublethal doses of common pesticides that are known to be toxic to honey bees to measure the ability of treatment MBCD compositions to confer protection to the honey bees. Analytical grade standards of clothianidin, imidacloprid, and chlorpyrifos (available from MilliporeSigma, St. Louis, Mo.) were first dissolved in acetone, then diluted to their final concentrations (Table 2) in 50% sugar syrup. The listed sublethal doses were derived from taking half of the previously published honey bee LD50s (referred to a “LD25” in Table 2). The solutions were administered via 3 mL syringes in rearing cups as previously stated. Fresh pesticide solutions were mixed every 3 days to coincide with syringe replacement (see e.g., Williamson et al., 2013; Li et al, 2017).
Median survival is represented for each treatment by (# days). Curves were compared using Log-Rank Mantel-Cox (p<0.0001 for clothianidin versus control, 1, or 10 μg MBCD; p<0.001 for chlorpyrifos versus control or 1 μg MBCD) and Gehan-Breslow-Wilcoxon (p<0.0001 for clothianidin versus control, 1, or 10 μg MBCD; p<0.05 for chlorpyrifos versus control or 1 μg MBCD). […] The chlorpyrifos treatment was able to reduce median lifespan on its own to 26 days compared to the 36 days of the control (FIG. 2C). While a dosage of 10 μg/bee MBCD did increase median lifespan to 30 days, there was not a significant change in median lifespan.

honey bee = conditions: half of previously published honey bee LD50; used as dose in the cage study; cited from earlier work
[2] = tested on: Deformed wing virus (DWV); assay: Viral load (RT-qPCR) in virus-infected honey bees after MBCD treatment; assay type: in vivo, Apis mellifera; conditions: for decrease in DWV (+) sense viral genome / decrease in DWV (−) sense replicative strand: 10 μg/bee MBCD; for decrease in DWV (+) sense viral genome: versus untreated infected bees
Experimental: The presence of DWV and Varroa destructor was determined as follows. Total RNA was extracted from whole body 12 individual honey bees using the TRIzol Reagent® (available from Thermo Fisher Scientific, Waltham, Mass.) by manufacturers specifications, and stored at −80° C. First-strand cDNA was synthesized using the Superscript III Reverse Transcriptase (available in a kit from Thermo Fisher Scientific). Briefly, each reaction contained: 3 μl total bee RNA (˜1 μg/μl), 1 μl of 10 mM dNTPs, 1 μl random primers (0.15 μg/μl), 1 μL of Oligo(dT), 1 μl of 0.1 M DTT (0.1 M), 4 μl 5×First-Strand Buffer, 1 uL of 200 U/μL RnaseOUT, 1 μl of 200 U/μl SuperScript III Reverse Transcriptase, and 7 μl Nuclease-free water. The reaction mixture was incubated at 25° C. for 5 min, 55° C. for 2 hrs, and 70° C. for 15 min, then stored at −20° C. until use. Transcript levels (RT-qPCR analysis) were quantified using the Brilliant III Ultra-Fast SYBR Green® QPCR Master Mix (Agilent Technologies, Inc., Santa Clara, Calif.) on a CFX384 Touch Real Time PCR Detection System (Bio-Rad Laboratories, Inc., Hercules, Calif.). Samples were incubated at 95° C. for 5 min, followed by 40 cycles of 95° C. for 20 s, 59° C. for 20 s, and 72° C. for 20 s. Thereafter, a melt curve analysis from 65° C. to 95° C. was performed to confirm product specificity. For the detection and quantification of negative stranded bee viruses, replication intermediates, TAG-DWV primers were substituted for random primers or oligos (see e.g., Boncristiani et al., 2009). The fold difference in viral concentration among different treatment groups was determined using the comparative Ct method (2^−ΔΔCT method) (see e.g., Livak & Schmittgen, 2001). Calibrators were chosen as the highest average treatment ΔCt value for each experiment.
Emerging bees that had non-deformed wings (i.e., asymptomatic) were selected for a cage study (n=30 bees per cage & 6 replicate cages per treatment). […] Virally infected untreated bees were compared to bees fed 10 μg/bee MBCD in 50% sucrose solution. In FIG. 6A, DWV (+) sense viral genome titers were compared 3 and 6 days after treatment. An unpaired, 2-tailed Student's T-Test was performed to determine statistical significance (p<0.05 at 3 days feeding; N.S.=Non-significant 6 days after treatment). In FIG. 6B, DWV (−) sense replicative strand titers were compared 3 and 6 days after treatment. An unpaired, 2-tailed Student's T-Test was performed to determine statistical significance (p<0.0001 for 3 days post treatments; p=0.049 for 6 days post treatment). The “★” denotes the sample chosen as the 2^−ΔΔCT calibrator and bars denote standard error.

honey bees [3] = assay: MBCD and HPBCD alpha-tocopherol inclusion complex treatment of clothianidin-exposed bees, survival; assay type: in vivo, Apis mellifera; conditions: clothianidin treatment alone, n=280 bees/treatment
Experimental: MBCD & HPBCD alpha-tocopherol inclusion complexes were formulated using 2.33 μL of +-(α)-tocopherol (1,000 I.U., available from MilliporeSigma, St. Louis, Mo.) added to 1 g of MBCD or HPBCD to arrive at a concentration of approximately 20 I.U. of tocopherol/bee/day and 10 μg (or other indicted dosage) of BCD/bee/day. The resulting powder can be stored at −20° C. or immediately dissolved into 4.166 L of water containing 50% sucrose. The resulting solution is stable and stored at 4° C. until further use. The comparative effects of MBCD versus HPBCD treated bees are shown for lab-controlled environment (n=280 bees/treatment).

[4] = tested on: glutathione-S-transferase S1 (GSTS1); assay: Transcript levels of honey bee detoxification gene (RT-qPCR); assay type: in vivo, Apis mellifera; conditions: clothianidin plus 10 μg/bee MBCD versus pesticide only, after 3 days of feeding
Experimental: Bees receiving clothianidin were compared to bees receiving the pesticide with the addition of 1 μg or 10 μg/bee MBCD after 3 days of feeding. One-way ANOVA with Tukey multiple comparisons was performed to determine any statistical significance (p<0.05 for Clothianidin versus Clothianidin+10 μg/bee MBCD). The “*” denotes the sample chosen as the 2^−ΔΔCT calibrator. […] Pesticides removed from the immediate environment results in less energy dedicated to detoxification and excretion.
(§2) The presence of DWV and Varroa destructor was determined as follows. Total RNA was extracted from whole body 12 individual honey bees using the TRIzol Reagent® (available from Thermo Fisher Scientific, Waltham, Mass.) by manufacturers specifications, and stored at −80° C. […] Transcript levels (RT-qPCR analysis) were quantified using the Brilliant III Ultra-Fast SYBR Green® QPCR Master Mix (Agilent Technologies, Inc., Santa Clara, Calif.) on a CFX384 Touch Real Time PCR Detection System (Bio-Rad Laboratories, Inc., Hercules, Calif.). […] For the detection and quantification of negative stranded bee viruses, replication intermediates, TAG-DWV primers were substituted for random primers or oligos (see e.g., Boncristiani et al., 2009). The fold difference in viral concentration among different treatment groups was determined using the comparative Ct method (2^−ΔΔCT method) (see e.g., Livak & Schmittgen, 2001). […]

[5] = tested on: honey bees infected with Deformed wing virus; assay: Weight of virus-infected honey bees after MBCD treatment; assay type: in vivo, Apis mellifera; conditions: 10 μg/bee MBCD
Experimental: Untreated bees fed only 50% sucrose were compared to bees receiving 10 μg/bee MBCD in 50% sucrose (FIG. 7). Median survival was represented for each treatment by (# days). Curves were compared using Log-Rank Mantel-Cox (p<0.001) and Gehan-Breslow-Wilcoxon (p<0.01). […] The mass ([…]) of control bees was compared to bees fed 10 μg/bee MBCD. Bees were measured 3 (FIG. 8A) and 6 (FIG. 8B) days post feeding. With average bee weight higher along with more bees present, the amount of work accomplished in the hive as a whole would be expected to increase. An unpaired, 2-tailed Student's T-Test was performed to determine statistical significance (p<0.05 at 3 days) and bars denote standard error.

[6] = tested on: honey bees infected with Deformed wing virus; assay: Survival of virus-infected honey bees after MBCD treatment; assay type: in vivo, Apis mellifera; conditions: 10 μg/bee MBCD in 50% sucrose, untreated 6 days
Experimental: as §2, with “C. First-strand cDNA was synthesized using the Superscript III Reverse Transcriptase (available in a kit from Thermo Fisher Scientific).” for “C.”
Untreated bees fed only 50% sucrose were compared to bees receiving 10 μg/bee MBCD in 50% sucrose (FIG. 7). […] Bees were measured 3 (FIG. 8A) and 6 (FIG. 8B) days post feeding. […]

[7] = tested on: European honey bees, Apis mellifera; assay: Longevity of healthy adult worker bees in cage study after MBCD treatment; assay type: in vivo; conditions: healthy newly emerged bees, versus control
Experimental: as §1
Newly emerged honey bees were placed in individual cages (n=30 bees per cage & 2 replicate cages per treatment) and fed using a syringe filled with 50% sucrose alone or supplemented with either 1, 10, or 100 μg MBCD per bee/per week. […]

[8] = bees fed pesticide alone at sublethal dose in 50% sucrose, control 36 days

Cc1ccc(/N=C/N(C)/C=N/c2ccc(C)cc2C)c(C)c1 [Amitraz, amitraz, reference compound]
colony (hive) loss (honey bee colonies): about 20% | total frames containing bees (honey bee colonies): 48.5 frames

CCOP(=S)(OCC)Oc1nc(Cl)c(Cl)cc1Cl [Chlorpyrifos, chlorpyrifos, reference compound]
median lifespan (honey bees [1]; [8]): 26 days | Sublethal LD25 (honey bee): 0.43 ng/bee

CN/C(=N\[N+](=O)[O-])NCc1cnc(Cl)s1 [Clothianidin, clothianidin, reference compound]
DWV levels ([2]; clothianidin treated bees compared to bees supplemented with 20 ppm MBCD): higher levels of DWV | median lifespan (honey bees [3]): 22 days | median lifespan (honey bees [1]; [8]): 13.5 days | Sublethal LD25 (honey bee): 1.0 ng/bee

CC(O)COC[C@H]1O[C@@H]2O[C@H]3[C@H](O)[C@@H](O)[C@@H](O[C@H]4[C@H](O)[C@@H](O)[C@@H](O[C@H]5[C@H](O)[C@@H](O)[C@@H](O[C@H]6[C@H](O)[C@@H](O)[C@@H](O[C@H]7[C@H](O)[C@@H](O)[C@@H](O[C@H]8[C@H](O)[C@@H](O)[C@@H](O[C@H]1[C@H](O)[C@H]2O)O[C@@H]8COCC(C)O)O[C@@H]7COCC(C)O)O[C@@H]6COCC(C)O)O[C@@H]5COCC(C)O)O[C@@H]4COCC(C)O)O[C@@H]3COCC(C)O (stereo partly drawn) [HPBCD, hydroxypropyl-β-cyclodextrin]
colony (hive) loss (honey bee colonies): about 30% | total frames containing bees (honey bee colonies): 53.5 frames

O=[N+]([O-])NC1=NCCN1Cc1ccc(Cl)nc1 [Imidacloprid, imidacloprid, reference compound]
median lifespan (honey bees [1]; [8]): 32 days | Sublethal LD25 (honey bee): 4.3 ng/bee

methyl-β-cyclodextrin [MBCD]
decrease in DWV (+) sense viral genome ([2]; 3 days after treatment): ~2 fold | decrease in DWV (−) sense replicative strand ([2]; 3 days post treatment): approximately 3 fold | decrease in DWV (−) sense replicative strand ([2]; 6 days post treatment): ~2 fold | decrease in DWV (+) sense viral genome ([2]; 6 days post treatment): non-significant decrease | median lifespan (honey bees [1]; chlorpyrifos plus 1 μg/bee MBCD, chlorpyrifos alone 26 days): 36.5 days | median lifespan (honey bees [1]; chlorpyrifos plus 10 μg/bee MBCD, chlorpyrifos alone 26 days): 30 days | median lifespan (honey bees [1]; clothianidin plus 1 μg/bee MBCD, clothianidin alone 13.5 days): 31 days | median lifespan (honey bees [1]; clothianidin plus 10 μg/bee MBCD, clothianidin alone 13.5 days): 40 days | median lifespan (honey bees [1]; imidacloprid plus 1 μg/bee MBCD, imidacloprid alone 32 days): 31 days | median lifespan (honey bees [1]; imidacloprid plus 10 μg/bee MBCD, imidacloprid alone 32 days): 36 days | decrease in GSTS1 transcript level [4]: 1.5 fold | bee weight versus control ([5]; 3 days after feeding): significantly higher weight | bee weight versus control ([5]; 6 days after feeding): statistically comparable | median lifespan [6]: 9 days | increase in median lifespan ([7]; 1 μg MBCD per bee/per week in 50% sucrose): 9 days | increase in median lifespan ([7]; 10 μg MBCD per bee/per week in 50% sucrose): 6.5 days
